Results from PMC10609163, “Exploring the HIV-1 Rev Recognition Element (RRE)–Rev Inhibitory Capacity and Antiretroviral Action of Benfluron Analogs” (Molecules, 2023).
Where “and” joins values, the source holds several entries; their conditions need not be identical. Equal values may be shown once. Read-outs that look alike come from different tables or passages of the source.

Experiments:
RRE subdomain IIB = experiment: Fluorescence binding to fluorescein-labeled (U23) RRE subdomain IIB RNA hairpin; parameters: species or system HIV-1; details: RRE IIB hairpin labeled with fluorescein at U23; 100 nM RNA, pH 6.6; 95% CI and R2 in parentheses
Protocol: These experiments measured compound association to an RRE subdomain IIB RNA oligonucleotide labeled with fluorescein at extrahelical loop nucleotide U23 (Figure 1) and were carried out in a Spectramax iD5 microplate reader (Molecular Devices) using 100 nM RNA dissolved in 10 mM sodium phosphate, pH 6.6, and 0.1 mM EDTA, as described before. The equilibrium dissociation constants, Kd, were determined by fitting the fluorescence intensity curves to a two-state binding model with GraphPad Prism software. […] All fluorescence experiments were carried out at least three times for each compound.

in vitro = assay type: cell-based; details: human
Protocol: (§1) The methodology used to perform these experiments in MT-2 cell culture was reported previously. Infectious HIV-1NL4-3-Ren supernatants were obtained from transfection in 293T cells with plasmid pNL4-3-Ren, where a Renilla luciferase reporter gene replaces the nef gene of the wild-type pNL4-3 HIV-1 clone, which includes LTR promoters. MT-2 cells were infected with these supernatants (100,000 RLUs/well) in the presence of the compounds, and anti-HIV activity was quantified 48 h post-infection by determining Renilla luciferase activity in cell lysates compared to a non-treated control (100%), following the manufacturer’s instructions (Renilla Assay System, Promega). Briefly, 100 µL of Renilla Assay System buffer was added to obtain cell lysates, and 35 µL of these lysates was then transferred to a white 96-well microplate. RLUs were recorded after injecting 35 µL of Renilla substrate (10 s reading) using a luminometer (Berthold Detection Systems). Cellular viability was evaluated in mock-infected cells similarly treated with the same concentrations of compounds using the CellTiter-Glo assay (Promega). To assess the antiretroviral activity of benfluron in human primary cells, PBMCs were isolated from healthy donors via Ficoll density gradient centrifugation and subsequently cultured in a PHA (1 µg/mL) and IL-2 (100 U/mL)-enriched medium for 48 h at 37 °C. Activated PBMCs were infected with HIV-1NL4-3 [20] at a multiplicity of infection of 0.001 and cultured in the presence of serial dilutions (5 nM–100 µM) of benfluron. Three days post-infection, the supernatant was collected, and the HIV-inhibitory effect of the drug was measured using the Alliance HIV-1 p24 Antigen Elisa Kit (Perkin Elmer). The toxicity of the compound in PBMCs was evaluated as explained above for MT-2 cells. In both experiments, the potential background toxicity and antiviral effect of the DMSO vehicle used to solubilize the molecule were determined in parallel. In all cases, EC50 and CC50 values were calculated with GraphPad Prism using log(inhibitor) vs. response non-linear curve fitting. All cellular assays were performed in triplicate.

HIV-1NL4-3-Ren [1] = experiment: Anti-HIV activity in MT-2 cells infected with HIV-1NL4-3-Ren (Renilla luciferase); assay type: cell-based; details: for EC50: Human immunodeficiency virus 1, MT2, 48 h
Protocol: as §1

[2] = tested on: full-length RRE–Rev complex; experiment: EMSA of full-length RRE–Rev complex formation inhibition; assay type: biochemical, HIV-1; details: low-order RRE–Rev complex EMSA bands; 70 nM RRE, 0.75 µM Rev; 95% CI and R2 in parentheses
Protocol: These assays were used to monitor full-length RRE–Rev inhibition and involved the viral protein Rev and a 234 nt RRE sequence (Figure 1), obtained as reported previously. RRE was prepared in native conditions using a procedure based on electrophoresis. The reactions used 70 nM RRE and 0.75 μM Rev dissolved in an aqueous solution containing 10 mM HEPES, pH 7.5, 300 mM KCl, 1 mM MgCl2 and 0.5 mM EDTA, and the samples were loaded onto 8% polyacrylamide gels with TB running buffer. Gels were run at 4 °C for 3 h at 150 V, and the bands were stained with SYBR Gold and quantified with ImageJ software. In all cases, we monitored the disappearance of the bands corresponding to low-order RRE–Rev complexes (Figure 4A) using a sigmoidal inhibitory model and GraphPad Prism. At least three independent experiments were conducted for each compound.

HIV-1NL4-3-Ren [3] = tested on: HIV-1NL4-3-Ren; parameters: method as in PMID 30071201; details: MT-2 cells, HIV-1 infection; cited from earlier work
HIV-1NL4-3 = experiment: Antiretroviral activity in activated PBMCs infected with HIV-1NL4-3 (p24 ELISA); assay type: cell-based
Protocol: as §1, with “Briefly, 100 µL of Renilla Assay System buffer was added to obtain cell lysates, and 35 µL of these lysates was then transferred to a white 96-well microplate.” left out, “To assess the antiretroviral activity of benfluron in human primary cells, PBMCs were isolated from healthy donors via Ficoll density gradient centrifugation and subsequently cultured in a PHA (1 µg/mL) and IL-2 (100 U/mL)-enriched medium for 48 h at 37 °C. Activated PBMCs were infected with HIV-1NL4-3 [20] at a multiplicity of infection of 0.001 and cultured in the presence of serial dilutions (5 nM–100 µM) of benfluron.” left out, “In all cases, EC50 and CC50 values were calculated with GraphPad Prism using log(inhibitor) vs. response non-linear curve fitting. All cellular assays were performed in triplicate.” left out

MT-2 cells = tested on: MT-2 cells; parameters: method as in PMID 30071201; details: cited from earlier work
PBMCs = experiment: in vitro; assay type: cell-based; details: human
Protocol: as §1

Q: Which Kd (RRE subdomain IIB) does the source give for `CN(C)CCOc1ccc2c(c1)C(=O)c1ccccc1-2` [Compound 1] here?
A: Its Kd is 45.6 µM.

Q: And the CC50 at 48 h (in vitro; CC50)?
A: The CC50 at 48 h was over 100 µM.

Q: What about the EC50 (HIV-1NL4-3-Ren [1]) of the same compound?
A: Its EC50 is over 100 µM.

Q: And the IC50 [2]?
A: Its IC50 is over 50 µM.

Q: For `CN(C)CCOc1cccc(C(=O)c2ccccc2)c1` [Compound 2], which Kd (RRE subdomain IIB) is on record?
A: Its Kd is over 100 µM.

Q: And the CC50 at 48 h (in vitro; CC50)?
A: The CC50 at 48 h was about 100 µM.

Q: What about the EC50 (HIV-1NL4-3-Ren [1]) of the same compound?
A: The EC50 was about 100 µM.

Q: What about the IC50 [2] of the same compound?
A: The IC50 was over 50 µM.

Q: Which results are given for `CN(C)CCOc1ccc2c(c1)Cc1ccccc1-2` [Compound 3]?
A: Kd (RRE subdomain IIB): 106 µM; CC50 at 48 h (in vitro; CC50): ~100 µM; EC50 (HIV-1NL4-3-Ren [1]): ~100 µM; IC50 [2]: > 50 µM

Q: What does the source list for `CN(C)CCOc1ccc(-c2ccccc2)c2ccccc12` [Compound 4]?
A: Kd (RRE subdomain IIB): 77.5 µM; CC50 at 48 h (in vitro; CC50): 28.7 µM; EC50 (HIV-1NL4-3-Ren [1]): 17 µM; IC50 [2]: > 50 µM

Q: Which results are given for `CN(C)CCOc1cc(C(=O)c2ccccc2)cc2ccccc12` [Compound 5]?
A: Kd (RRE subdomain IIB): 95.1 µM; CC50 at 48 h (in vitro; CC50): 49.7 µM; EC50 (HIV-1NL4-3-Ren [1]): 19.4 µM; selectivity index (SI; CC50/EC50) (HIV-1NL4-3-Ren [1]; MT-2 cells): 2.6; IC50 [2]: ~29 µM and 29 µM

Q: Which Kd (RRE subdomain IIB) does the source give for `CN1CCN(CCOc2cc(C(=O)c3ccccc3)cc3ccccc23)CC1` [Compound 6] here?
A: Its Kd is 34 µM.

Q: And the CC50 at 48 h (in vitro; CC50)?
A: Its CC50 at 48 h is 20 to 100 µM.

Q: What about the CC50 at 48 h (in vitro; MT-2 cells, mock-infected, 95% CI and R2 in parentheses, read-out: CC50) of the same compound?
A: The CC50 at 48 h was 20 to 49.7 µM.

Q: What about the EC50 (HIV-1NL4-3-Ren [1]) of the same compound?
A: The EC50 was 24.2 µM.

Q: And the IC50 [2]?
A: The IC50 was ~45 µM and 45 µM.

Q: With `CN(C)CCOc1cc2c(c3ccccc13)-c1ccccc1C2=O` [benfluron] as the compound, how does the Kd (RRE subdomain IIB) read?
A: Its Kd is 4.83 µM.

Q: What about the EC50 (HIV-1NL4-3-Ren [3]) of the same compound?
A: Its EC50 is 0.83 µM.

Q: What about the “selectivity index (SI; CC50/EC50)” value (HIV-1NL4-3) of the same compound?
A: The value was 1.3.

Q: What about the EC50 (HIV-1NL4-3; Human immunodeficiency virus 1, PBMC, 72 h, HIV-1NL4-3, three days post-infection, p24, read-out: antiviral EC50) of the same compound?
A: The EC50 was 5.5 µM.

Q: And the CC50 (MT-2 cells)?
A: Its CC50 is 28.1 µM.

Q: What about the CC50 (PBMCs) of the same compound?
A: Its CC50 is 7.09 µM.

Q: And the CC50 (in vitro; cytotoxic CC50)?
A: Its CC50 is 7.1 µM.

Q: And the IC50 [2]?
A: Its IC50 is 5 µM.
